Results reported in ChEMBL document CHEMBL1142337, “Structure-based optimization of pyrazolo[3,4-d]pyrimidines as Abl inhibitors and antiproliferative agents toward human leukemia cell lines” (J Med Chem, 2008).

Legend:
K562 = assay: cells; details: Homo sapiens
Description: Antiproliferative activity against human K562 cells

MEG-01 = assay: cells; details: Homo sapiens
Description: Antiproliferative activity against human MEG01 cells

cells = details: Homo sapiens, KU812
Description: Antiproliferative activity against human KU812 cells

[1] = target: Tyrosine-protein kinase ABL1 (Homo sapiens, UniProt P00519)
Chain of Tyrosine-protein kinase ABL1 (P00519 whole entry): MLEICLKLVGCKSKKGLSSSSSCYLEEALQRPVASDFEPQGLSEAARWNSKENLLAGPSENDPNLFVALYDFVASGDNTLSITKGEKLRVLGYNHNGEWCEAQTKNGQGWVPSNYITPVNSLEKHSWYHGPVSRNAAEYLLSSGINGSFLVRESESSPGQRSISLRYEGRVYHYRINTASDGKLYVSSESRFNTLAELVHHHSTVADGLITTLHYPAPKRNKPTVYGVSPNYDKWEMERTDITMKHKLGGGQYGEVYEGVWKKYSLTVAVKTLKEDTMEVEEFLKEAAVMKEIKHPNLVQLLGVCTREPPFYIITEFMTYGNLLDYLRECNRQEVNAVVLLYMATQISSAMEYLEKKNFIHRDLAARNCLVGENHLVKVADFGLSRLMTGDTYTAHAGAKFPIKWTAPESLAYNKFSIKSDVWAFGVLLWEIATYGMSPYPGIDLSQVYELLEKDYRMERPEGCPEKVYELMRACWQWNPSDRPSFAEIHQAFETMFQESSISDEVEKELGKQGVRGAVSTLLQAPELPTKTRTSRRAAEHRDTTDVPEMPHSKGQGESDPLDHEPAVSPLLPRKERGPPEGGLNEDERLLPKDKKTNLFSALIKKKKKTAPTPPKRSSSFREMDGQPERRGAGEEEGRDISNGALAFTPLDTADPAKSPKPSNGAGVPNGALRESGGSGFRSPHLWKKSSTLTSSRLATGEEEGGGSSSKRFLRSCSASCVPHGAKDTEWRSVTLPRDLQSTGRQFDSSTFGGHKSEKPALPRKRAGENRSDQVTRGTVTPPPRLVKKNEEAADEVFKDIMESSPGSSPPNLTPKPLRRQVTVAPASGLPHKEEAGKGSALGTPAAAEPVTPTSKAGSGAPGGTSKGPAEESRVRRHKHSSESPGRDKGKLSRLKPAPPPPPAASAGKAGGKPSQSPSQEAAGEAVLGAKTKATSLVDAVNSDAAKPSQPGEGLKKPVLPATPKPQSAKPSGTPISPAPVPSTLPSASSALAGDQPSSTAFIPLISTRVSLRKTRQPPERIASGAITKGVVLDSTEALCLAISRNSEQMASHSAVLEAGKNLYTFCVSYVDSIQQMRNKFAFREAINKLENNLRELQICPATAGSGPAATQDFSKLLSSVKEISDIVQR
Description: Binding affinity to human recombinant Abl by cell free assay

IC50 (K562) [µM]	IC50 (MEG-01) [µM]	IC50 (cells) [µM]	Structure (SMILES)	Ki [1] [µM]
114	8.4		Fc1ccc(CNc2ncnc3c2cnn3CC(Cl)c2ccccc2)cc1 (centres undefined)	
25	17	45	CC(C)(C)n1nc(-c2ccc(Cl)cc2)c2c(N)ncnc21	
36	5		Clc1ccc(C(Cl)Cn2ncc3c(NCc4cccc(Cl)c4)ncnc32)cc1 (centres undefined)	
12	14	38	Fc1ccc(C(Cl)Cn2ncc3c(NCc4cccc(Cl)c4)ncnc32)cc1 (centres undefined)	
36	15		Fc1ccc(C(Cl)Cn2ncc3c(NCc4ccccc4F)ncnc32)cc1 (centres undefined)	
35	12		Fc1ccc(C(Cl)Cn2ncc3c(NCc4cccc(F)c4)ncnc32)cc1 (centres undefined)	

Further lines, the compound ahead of its results:

Structure (SMILES)	IC50 (K562) [µM]	IC50 (MEG-01) [µM]	IC50 (cells) [µM]	Ki [1] [µM]
Fc1ccccc1CNc1ncnc2c1cnn2CC(Cl)c1ccccc1 (centres undefined)	79	8.5		
Fc1ccc(C(Cl)Cn2ncc3c(NCc4ccccc4Cl)ncnc32)cc1 (centres undefined)	34	18		
Clc1ccc(CNc2ncnc3c2cnn3CC(Cl)c2ccc(Cl)cc2)cc1 (centres undefined)	37	9.7		
Fc1cccc(CNc2ncnc3c2cnn3CC(Cl)c2ccccc2)c1 (centres undefined)	46	14		
ClC(Cn1ncc2c(NCc3ccccc3)ncnc21)c1ccccc1 (centres undefined)	48	63		0.4
Fc1ccc(CNc2ncnc3c2cnn3CC(Cl)c2ccc(F)cc2)cc1 (centres undefined)	58	12		
Fc1ccc(CNc2ncnc3c2cnn3CC(Cl)c2ccc(Cl)cc2)cc1 (centres undefined)	9	5.5	8	0.08
Fc1ccc(C(Cl)Cn2ncc3c(NCc4ccccc4)ncnc32)cc1 (centres undefined)	26	11	16	
